{"source": "PubChem BioAssay AID256", "about": "(DTP/NCI, 2004)", "system": "CD2F1 mice, L1210 leukemia ip, survival T/C", "test": "NCI In Vivo Anticancer Drug Screen. Data for tumor model L1210 Leukemia (intraperitoneal) in CD2F1 (CDF1) mice", "conditions": "higher = longer survival", "summary_of_the_method": "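In this screen, transplantable tumors were grown in mice given either the compound or its vehicle. Results were expressed as the treated measurement relative to the control measurement.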", "key": {"[1]": {"conditions": "endpoint: mean survival time, dose: 100.0 mg/kg/injection, schedule: Q01DX009 (ip), vehicle: saline with Tween-80"}, "[2]": {"conditions": "endpoint: mean survival time, dose: 200.0 mg/kg/injection, schedule: Q01DX009 (ip), vehicle: saline with Tween-80"}, "[3]": {"conditions": "endpoint: mean survival time, dose: 400.0 mg/kg/injection, schedule: Q01DX009 (ip), vehicle: saline with Tween-80"}, "[4]": {"conditions": "endpoint: mean survival time, dose: 100.0 mg/kg/injection, schedule: Q04DX003 (ip), vehicle: saline with Tween-80"}, "[5]": {"conditions": "endpoint: mean survival time, dose: 200.0 mg/kg/injection, schedule: Q04DX003 (ip), vehicle: saline with Tween-80"}, "[6]": {"conditions": "endpoint: mean survival time, dose: 400.0 mg/kg/injection, schedule: Q04DX003 (ip), vehicle: saline with Tween-80"}, "[7]": {"conditions": "endpoint: mean survival time, dose: 50.0 mg/kg/injection, schedule: Q01DX009 (ip), vehicle: saline with Tween-80"}, "[8]": {"conditions": "endpoint: mean survival time, dose: 50.0 mg/kg/injection, schedule: Q01DX009 (ip), vehicle: saline"}, "[9]": {"conditions": "endpoint: mean survival time, dose: 100.0 mg/kg/injection, schedule: Q01DX009 (ip), vehicle: saline"}}, "note": "Values joined by “and” are separate entries in the source; they are usually repeats but may differ in a detail not shown here. Equal entries are not always repeated. Toxic doses and inconclusive results are not listed.", "data": [{"smiles": "O=C(Cc1cccc([N+](=O)[O-])c1)Nc1cccc(S(=O)(=O)F)c1", "values": [{"measurement": "T/C", "setting": "endpoint: mean survival time, dose: 100.0 mg/kg/injection, schedule: Q01DX001 (ip), vehicle: saline with Tween-80", "value": "96 % of control"}, {"measurement": "T/C", "setting": "endpoint: mean survival time, dose: 200.0 mg/kg/injection, schedule: Q01DX001 (ip), vehicle: saline with Tween-80", "value": "95 % of control"}, {"measurement": "T/C", "setting": "endpoint: mean survival time, dose: 400.0 mg/kg/injection, schedule: Q01DX001 (ip), vehicle: saline with Tween-80", "value": "96 % of control"}]}, {"smiles": "COc1ccc(C(OCC2OC(n3cc(C)c(=O)[nH]c3=O)CC2OP(=O)(O)OCC2OC(n3cc(C)c(=O)[nH]c3=O)CC2OP(=O)(O)OCC2OC(n3cc(C)c(=O)[nH]c3=O)CC2OP(=O)(O)OCC2OC(n3cc(C)c(=O)[nH]c3=O)CC2OP(=O)(O)OCC2OC(n3ccc(N)nc3=O)C(O)C2O)(c2ccccc2)c2ccccc2)cc1", "note": "(centres undefined)", "values": [{"measurement": "T/C", "setting": "endpoint: median survival time, dose: 25.0 mg/kg/injection, schedule: Q01DX005 (ip), vehicle: saline", "value": "108 % of control"}, {"measurement": "T/C", "setting": "endpoint: median survival time, dose: 50.0 mg/kg/injection, schedule: Q01DX005 (ip), vehicle: saline", "value": "122 % of control"}, {"measurement": "T/C", "setting": "endpoint: median survival time, dose: 400.0 mg/kg/injection, schedule: Q01DX005 (ip), vehicle: saline", "value": "162 % of control"}]}, {"smiles": "CNC(=O)/C(=C\\c1ccccc1)NC(C)=O", "values": [{"measurement": "T/C", "setting": "[1]", "value": "103 % of control"}, {"measurement": "T/C", "setting": "[2]", "value": "98 % of control"}, {"measurement": "T/C", "setting": "[3]", "value": "98 % of control"}]}, {"smiles": "O=C(C1=CCCCC1)c1ccc(-c2ccccc2)cc1", "values": [{"measurement": "T/C", "setting": "[1]", "value": "102 % of control"}, {"measurement": "T/C", "setting": "[4]", "value": "95 % of control"}, {"measurement": "T/C", "setting": "[2]", "value": "91 % of control"}, {"measurement": "T/C", "setting": "[5]", "value": "95 % of control"}, {"measurement": "T/C", "setting": "[3]", "value": "96 % of control"}, {"measurement": "T/C", "setting": "[6]", "value": "93 % of control"}]}, {"smiles": "CN(C)S(=O)(=O)c1ccccc1C1(O)c2ccccc2-c2ccccc21", "values": [{"measurement": "T/C", "setting": "[7]", "value": "87 % of control"}, {"measurement": "T/C", "setting": "[1]", "value": "87 % of control"}, {"measurement": "T/C", "setting": "[4]", "value": "93 % of control"}, {"measurement": "T/C", "setting": "[5]", "value": "86 % of control"}]}, {"smiles": "C=C1C(=O)OC2CC(C)C3CC(OCCCl)OC(OCCCl)C3(C)CC12", "note": "(centres undefined)", "values": [{"measurement": "T/C", "setting": "endpoint: mean survival time, dose: 10.0 mg/kg/injection, schedule: Q01DX005 (ip), vehicle: water", "value": "98 % of control"}, {"measurement": "T/C", "setting": "endpoint: mean survival time, dose: 20.0 mg/kg/injection, schedule: Q01DX005 (ip), vehicle: water", "value": "96 % of control"}, {"measurement": "T/C", "setting": "endpoint: mean survival time, dose: 40.0 mg/kg/injection, schedule: Q01DX005 (ip), vehicle: water", "value": "93 % of control"}, {"measurement": "T/C", "setting": "endpoint: mean survival time, dose: 50.0 mg/kg/injection, schedule: Q01DX005 (ip), vehicle: distilled water + Tween-80", "value": "92 % of control"}, {"measurement": "T/C", "setting": "endpoint: mean survival time, dose: 80.0 mg/kg/injection, schedule: Q01DX005 (ip), vehicle: water", "value": "94 % of control"}, {"measurement": "T/C", "setting": "endpoint: mean survival time, dose: 100.0 mg/kg/injection, schedule: Q01DX005 (ip), vehicle: distilled water + Tween-80", "value": "97 % of control"}, {"measurement": "T/C", "setting": "endpoint: mean survival time, dose: 200.0 mg/kg/injection, schedule: Q01DX005 (ip), vehicle: distilled water + Tween-80", "value": "89 % of control"}, {"measurement": "T/C", "setting": "endpoint: mean survival time, dose: 400.0 mg/kg/injection, schedule: Q01DX005 (ip), vehicle: distilled water + Tween-80", "value": "94 % of control"}]}, {"smiles": "CC(=O)OC1COC(n2cnc3c(=O)[nH]cnc32)C(OC(C)=O)C1OC(C)=O", "note": "(centres undefined)", "values": [{"measurement": "T/C", "setting": "endpoint: mean survival time, dose: 12.5 mg/kg/injection, schedule: Q01DX001 (ip), vehicle: saline", "value": "100 % of control and 109 % of control"}, {"measurement": "T/C", "setting": "endpoint: mean survival time, dose: 25.0 mg/kg/injection, schedule: Q01DX001 (ip), vehicle: saline", "value": "100 % of control and 106 % of control"}, {"measurement": "T/C", "setting": "endpoint: mean survival time, dose: 50.0 mg/kg/injection, schedule: Q01DX001 (ip), vehicle: saline", "value": "118 % of control and 103 % of control"}, {"measurement": "T/C", "setting": "endpoint: mean survival time, dose: 100.0 mg/kg/injection, schedule: Q01DX001 (ip), vehicle: saline", "value": "97 % of control and 106 % of control"}]}, {"smiles": "CCC(C)C(=O)CN(C)c1ccccc1", "note": "(centres undefined)", "values": [{"measurement": "T/C", "setting": "endpoint: mean survival time, dose: 100.0 mg/kg/injection, schedule: Q04DX003 (ip), vehicle: saline", "value": "102 % of control"}, {"measurement": "T/C", "setting": "endpoint: mean survival time, dose: 200.0 mg/kg/injection, schedule: Q04DX003 (ip), vehicle: saline", "value": "102 % of control"}, {"measurement": "T/C", "setting": "endpoint: mean survival time, dose: 400.0 mg/kg/injection, schedule: Q04DX003 (ip), vehicle: saline", "value": "100 % of control"}]}, {"smiles": "N=C(N)SC1c2ccccc2-c2ccc(N)cc21", "note": "(centres undefined)", "values": [{"measurement": "T/C", "setting": "endpoint: mean survival time, dose: 25.0 mg/kg/injection, schedule: Q01DX009 (ip), vehicle: saline", "value": "107 % of control"}, {"measurement": "T/C", "setting": "[8]", "value": "102 % of control"}, {"measurement": "T/C", "setting": "[9]", "value": "109 % of control"}, {"measurement": "T/C", "setting": "[4]", "value": "103 % of control"}]}, {"smiles": "O=C(O)/C=C/C(=O)NCc1ccco1", "values": [{"measurement": "T/C", "setting": "[4]", "value": "94 % of control"}, {"measurement": "T/C", "setting": "[5]", "value": "94 % of control"}, {"measurement": "T/C", "setting": "[6]", "value": "94 % of control"}]}, {"smiles": "NC(CCC(=O)NCc1ccc(S(=O)(=O)F)cc1)C(=O)O", "note": "(centres undefined)", "values": [{"measurement": "T/C", "setting": "[8]", "value": "92 % of control"}, {"measurement": "T/C", "setting": "[9]", "value": "96 % of control"}, {"measurement": "T/C", "setting": "endpoint: mean survival time, dose: 200.0 mg/kg/injection, schedule: Q01DX009 (ip), vehicle: saline", "value": "92 % of control"}]}, {"smiles": "CCN(CC)CCSC(=O)C(O)(c1ccccc1)c1cccc(C)c1", "note": "(centres undefined)", "values": [{"measurement": "T/C", "setting": "endpoint: mean survival time, dose: 75.0 mg/kg/injection, schedule: Q01DX001 (ip), vehicle: saline", "value": "105 % of control"}]}, {"smiles": "CC(=O)NCC1(c2ccccc2)CCN(CCCC(=O)c2ccc(F)cc2)CC1", "values": [{"measurement": "T/C", "setting": "endpoint: mean survival time, dose: 25.0 mg/kg/injection, schedule: Q04DX003 (ip), vehicle: Klucel (hydroxypropylcellulose) (HPC)", "value": "95 % of control"}, {"measurement": "T/C", "setting": "endpoint: mean survival time, dose: 50.0 mg/kg/injection, schedule: Q04DX003 (ip), vehicle: Klucel (hydroxypropylcellulose) (HPC)", "value": "100 % of control"}, {"measurement": "T/C", "setting": "endpoint: mean survival time, dose: 100.0 mg/kg/injection, schedule: Q04DX003 (ip), vehicle: Klucel (hydroxypropylcellulose) (HPC)", "value": "95 % of control"}]}, {"smiles": "CC(C)(c1ccccn1)C(C)(C)c1ccccn1", "values": [{"measurement": "T/C", "setting": "[7]", "value": "96 % of control"}, {"measurement": "T/C", "setting": "[1]", "value": "104 % of control"}, {"measurement": "T/C", "setting": "[2]", "value": "100 % of control"}]}, {"smiles": "CCCCOC1CCC(O)C2CCCCC12", "note": "(centres undefined)", "values": [{"measurement": "T/C", "setting": "[4]", "value": "105 % of control"}, {"measurement": "T/C", "setting": "[5]", "value": "96 % of control"}, {"measurement": "T/C", "setting": "[6]", "value": "104 % of control"}]}]}
